The target of the test is Serine/threonine-protein kinase ATR (Homo sapiens, UniProt Q13535). In words: ATR Biochemical Potency Assay. As to the method: ATR enzyme was made by ChemPartner (batch: CP-ATR-20161102-M2). 2× enzyme solutions were prepared in 1× kinase base buffer. 10 μl of 2× enzyme solution (final concentration: 2.5 nM) was added to each well of the 384-well assay plate containing 60 nl compound in each well. The plate was incubated at room temperature for 10 minutes. 2× peptide solutions were prepared with FAM-labeled peptide and ATP in the 1× kinase base buffer. 10 μl of 2× peptide solution was added to each well of the 384-well assay plate, which was incubated at 28° C. for 240 min. 40 μl of stop buffer was added to stop reaction. Data were collected by Caliper.
Serine/threonine-protein kinase ATR, sequence (Q13535 whole entry): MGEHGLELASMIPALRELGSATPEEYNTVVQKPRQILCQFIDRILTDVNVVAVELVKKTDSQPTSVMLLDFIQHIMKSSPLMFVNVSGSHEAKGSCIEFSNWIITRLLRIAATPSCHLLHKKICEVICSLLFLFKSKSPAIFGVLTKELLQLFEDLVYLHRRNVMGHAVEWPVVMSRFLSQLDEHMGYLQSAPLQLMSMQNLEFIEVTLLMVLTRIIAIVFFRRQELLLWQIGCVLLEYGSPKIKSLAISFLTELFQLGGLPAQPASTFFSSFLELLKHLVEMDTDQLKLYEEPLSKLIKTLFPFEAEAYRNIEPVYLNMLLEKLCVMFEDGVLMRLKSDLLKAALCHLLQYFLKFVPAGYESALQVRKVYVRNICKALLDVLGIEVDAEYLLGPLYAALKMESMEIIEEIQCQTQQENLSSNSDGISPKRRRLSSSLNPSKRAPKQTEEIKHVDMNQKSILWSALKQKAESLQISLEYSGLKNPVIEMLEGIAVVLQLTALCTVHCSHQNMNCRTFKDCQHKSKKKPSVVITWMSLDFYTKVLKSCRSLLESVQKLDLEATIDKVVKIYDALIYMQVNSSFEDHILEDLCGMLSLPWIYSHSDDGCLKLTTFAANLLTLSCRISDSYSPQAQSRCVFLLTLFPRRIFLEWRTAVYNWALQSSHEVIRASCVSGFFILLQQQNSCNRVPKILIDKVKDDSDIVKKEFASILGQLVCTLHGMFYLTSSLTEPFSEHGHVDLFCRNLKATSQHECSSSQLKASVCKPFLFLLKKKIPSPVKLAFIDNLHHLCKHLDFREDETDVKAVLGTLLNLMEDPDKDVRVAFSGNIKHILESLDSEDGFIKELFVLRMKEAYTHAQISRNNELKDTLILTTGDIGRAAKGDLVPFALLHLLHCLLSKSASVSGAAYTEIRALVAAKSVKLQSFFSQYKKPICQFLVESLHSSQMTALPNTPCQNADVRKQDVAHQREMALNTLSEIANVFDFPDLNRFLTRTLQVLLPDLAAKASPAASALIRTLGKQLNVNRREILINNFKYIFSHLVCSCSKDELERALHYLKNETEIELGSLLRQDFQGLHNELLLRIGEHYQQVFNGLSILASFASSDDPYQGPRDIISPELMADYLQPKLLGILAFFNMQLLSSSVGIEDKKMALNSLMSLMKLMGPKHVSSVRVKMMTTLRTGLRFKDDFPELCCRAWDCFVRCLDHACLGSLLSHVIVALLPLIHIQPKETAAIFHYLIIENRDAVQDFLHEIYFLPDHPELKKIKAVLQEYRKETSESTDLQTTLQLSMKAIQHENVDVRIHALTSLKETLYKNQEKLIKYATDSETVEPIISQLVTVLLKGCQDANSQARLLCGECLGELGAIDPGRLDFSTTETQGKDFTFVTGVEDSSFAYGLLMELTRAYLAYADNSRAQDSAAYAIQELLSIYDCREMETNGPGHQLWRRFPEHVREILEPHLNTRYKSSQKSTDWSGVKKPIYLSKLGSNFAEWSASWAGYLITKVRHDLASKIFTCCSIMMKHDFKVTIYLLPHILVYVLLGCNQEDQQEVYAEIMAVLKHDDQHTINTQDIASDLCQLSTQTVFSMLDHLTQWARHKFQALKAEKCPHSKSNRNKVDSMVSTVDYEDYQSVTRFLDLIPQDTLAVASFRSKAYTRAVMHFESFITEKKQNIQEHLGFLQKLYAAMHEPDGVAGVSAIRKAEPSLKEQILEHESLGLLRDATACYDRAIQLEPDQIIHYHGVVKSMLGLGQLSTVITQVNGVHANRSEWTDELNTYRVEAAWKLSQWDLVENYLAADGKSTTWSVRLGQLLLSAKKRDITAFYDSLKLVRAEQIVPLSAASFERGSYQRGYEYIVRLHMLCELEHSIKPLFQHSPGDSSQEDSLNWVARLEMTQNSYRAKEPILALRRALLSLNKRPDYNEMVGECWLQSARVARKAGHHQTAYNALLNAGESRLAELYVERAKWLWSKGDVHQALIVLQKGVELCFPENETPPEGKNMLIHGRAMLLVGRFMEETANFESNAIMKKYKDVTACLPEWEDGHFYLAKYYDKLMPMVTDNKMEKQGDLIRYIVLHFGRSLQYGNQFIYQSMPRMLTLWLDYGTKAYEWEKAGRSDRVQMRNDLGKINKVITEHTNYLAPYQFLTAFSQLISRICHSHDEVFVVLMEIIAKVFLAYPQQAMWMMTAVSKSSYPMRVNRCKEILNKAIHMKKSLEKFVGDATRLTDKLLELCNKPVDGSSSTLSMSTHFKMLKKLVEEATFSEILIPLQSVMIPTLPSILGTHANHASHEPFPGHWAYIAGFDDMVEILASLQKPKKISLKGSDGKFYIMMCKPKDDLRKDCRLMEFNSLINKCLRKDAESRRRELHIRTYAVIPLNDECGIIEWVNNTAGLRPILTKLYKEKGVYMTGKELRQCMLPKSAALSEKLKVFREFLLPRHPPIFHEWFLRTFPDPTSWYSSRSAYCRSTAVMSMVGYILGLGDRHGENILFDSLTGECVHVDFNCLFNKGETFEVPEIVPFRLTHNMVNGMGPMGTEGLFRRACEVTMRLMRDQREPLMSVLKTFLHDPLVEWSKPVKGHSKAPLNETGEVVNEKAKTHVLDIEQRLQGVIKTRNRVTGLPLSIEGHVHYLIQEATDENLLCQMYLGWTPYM

pIC50: −log10 of the molar value.

What is called pIC50 is the IC50 on a negative log10 scale, so that one unit is a factor of ten. Low readings indicate a large IC50, high ones a small IC50. Consider `CC(C)n1c(=O)n(C)c2nnc3cc(F)c(-c4ccc(OCCCN5CC[C@H](F)C5)nc4)cc3c21` [US12226414, Example 14], for which the pIC50 is < 5.00.
With `CC(C)n1c(=O)n(C)c2nnc3cc(F)c(-c4ccc(OCCCN5CC[C@@H](F)C5)nc4)cc3c21` [US12226414, Example 15], the pIC50 was < 5.00.
